Results reported in patent US20070281909A1, “Creatine phosphate prodrugs, compositions and uses thereof” (XenoPort, Inc., priority 2006, published 2007).
Like-named read-outs stand apart in the source and are kept apart here.

Assays:
[1] = cited from earlier work
[2] = test system: HEK cells expressing SMVT; assay: Effect of treatment on the creatine kinase system (intracellular creatine phosphate, ATP, creatine); assay type: cell-based, human; conditions: 100 μM, relative to buffer
H9C2 cells = assay type: cell-based, rat
HEK293 cells = assay: Restoration of cellular energy homeostasis following sodium azide treatment; assay type: cell-based, human; conditions: azide 20 minutes, then compound or control media 20 minutes; FIG. 12
[3] = cited from earlier work; remark: listed apart in the source
[4] = healthy volunteers, oral creatine administration; cited from earlier work
[5] = animals fed a diet containing up to 1%; cited from earlier work

SMILES | Adverse side effects ([1]; patients with cardiac diseases, intravenous injection up to 8 gm/day) | Percent Increase in Intracellular Concentrations, ATP ([2]; After 1 Hour) | Percent Increase in Intracellular Concentrations, Creatine ([2]; After 1 Hour) | Percent Increase in Intracellular Concentrations, Creatine Phosphate ([2]; After 1 Hour) | Percent Increase in Intracellular Concentrations, ATP ([2]; After 3 Hours) | Percent Increase in Intracellular Concentrations, Creatine ([2]; After 3 Hours) | Percent Increase in Intracellular Concentrations, Creatine Phosphate ([2]; After 3 Hours) | Protection against 3-NP toxicity (ATP luminescence) (H9C2 cells) | Reversal of azide-induced ATP depletion (HEK293 cells) | Duration of increases in tissue creatine phosphate levels ([3]; following oral creatine supplementation) | Overall increase in creatine phosphate levels by creatine supplementation ([3]; supplementation typically takes weeks) | Increase of cerebral creatine phosphate [4] | Adverse side effects ([1]; athletes and body builders, 2-3 gm/day) | Adverse effects [5]
CN(CC(=O)O)C(=N)NP(=O)(O)O [Creatine Phosphate, creatine phosphate] | without adverse side effects | 27% | −6% | 15% | 10% | 0% | 5% |  |  |  |  |  |  | 
CN(CC(=O)O)C(=N)N [Creatine, creatine] |  | 5% | 8% | 26% | −5% | 40% | 30% | not | not protective | > 14 days | < 50% | about 10% |  | 
CN(CC(=O)O)C(=N)N.O [creatine monohydrate] |  |  |  |  |  |  |  |  |  |  |  |  | without adverse side effects | 
NC1=NCCN1CC(=O)O [cyclocreatine] |  |  |  |  |  |  |  |  |  |  |  |  |  | do not exhibit adverse effects
